In the test the target is T1, RXFP1 (Homo sapiens, UniProt Q9HBX9).
T1 sequence (Q9HBX9 1-757): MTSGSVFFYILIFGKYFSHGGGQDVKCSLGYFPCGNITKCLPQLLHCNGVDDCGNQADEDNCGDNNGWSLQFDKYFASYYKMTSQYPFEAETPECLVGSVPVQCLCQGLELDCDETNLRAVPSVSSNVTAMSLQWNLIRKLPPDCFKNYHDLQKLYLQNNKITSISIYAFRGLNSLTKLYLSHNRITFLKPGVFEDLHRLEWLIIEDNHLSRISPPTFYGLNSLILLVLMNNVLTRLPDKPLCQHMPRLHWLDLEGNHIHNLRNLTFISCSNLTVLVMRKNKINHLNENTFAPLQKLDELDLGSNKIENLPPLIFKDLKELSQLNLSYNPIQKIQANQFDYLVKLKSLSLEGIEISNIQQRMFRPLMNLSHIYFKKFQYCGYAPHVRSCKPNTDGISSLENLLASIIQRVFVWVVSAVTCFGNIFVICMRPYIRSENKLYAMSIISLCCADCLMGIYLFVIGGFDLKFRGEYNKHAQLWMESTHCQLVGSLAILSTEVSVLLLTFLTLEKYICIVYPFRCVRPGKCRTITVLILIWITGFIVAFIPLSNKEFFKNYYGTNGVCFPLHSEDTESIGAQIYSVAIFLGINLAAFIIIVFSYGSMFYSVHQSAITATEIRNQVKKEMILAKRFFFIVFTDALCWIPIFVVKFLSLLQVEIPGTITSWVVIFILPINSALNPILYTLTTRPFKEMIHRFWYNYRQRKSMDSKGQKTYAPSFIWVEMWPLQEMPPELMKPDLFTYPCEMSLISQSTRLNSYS
The experiment in a line: OVCAR5 cAMP assay (RXFP1 agonist activity, HTRF). The note with it: for Emax: OVCAR-5, read-out: cAMP assay in OVCAR 5 cells Emax, maximal intracellular cAMP relative to H2-relaxin in the same test occasion.

Non-standard residues stand in square brackets, D forms with d. Residues, ends and D or L forms follow the SMILES beside them. 1Nal = N[C@@H](Cc1cccc2ccccc12)C(=O)O; αMeS = C[C@](N)(CO)C(=O)O; Nle = CCCC[C@H](N)C(=O)O; Aib = CC(C)(N)C(=O)O

A word on the Emax: it is the greatest response seen or fitted, relative to the assay's reference. As usually defined, the EC50 is the concentration at which the effect is half-maximal. Low values mean higher potency in that assay, high ones lower potency in that assay. Take `CCCC[C@H](NC(=O)CNC(=O)[C@H](CCC(=O)O)NC(=O)C(C)(C)NC(=O)C(C)(C)NC(=O)[C@@H](NC(=O)[C@H](CCCCNC(C)=O)NC(=O)[C@H](C)NC(=O)[C@H](CCCNC(=N)N)NC(=O)[C@@H](NC(=O)[C@H](CCCCN)NC(=O)[C@H](CCC(=O)O)NC(=O)[C@H](CCCNC(=N)N)NC(=O)CNC(=O)[C@H](CCC(=O)O)NC(=O)[C@H](CC(C)C)NC(C)=O)C(C)C)[C@@H](C)CC)C(=O)N[C@@H](CO)C(=O)N[C@H](C(=O)N[C@@H](Cc1c[nH]c2ccccc12)C(=O)N[C@@H](CO)C(=O)NC(C)(C)C(=O)N[C@@H](CCCNC(=N)N)C(=O)N[C@@H](CCCCNC(C)=O)C(=O)N[C@@H](CCCCN)C(N)=O)[C@@H](C)O` [compound 27] (Ac-LEGREKVRAK(Ac)I[Aib][Aib]EG[Nle]STWS[Aib]RK(Ac)K-NH2): the Emax was 95%. The compound further gave a half-maximal effective concentration (EC50) (cAMP assay in OVCAR 5 cells EC50 (nM), OVCAR5 cells expressing endogenous RXFP1, cAMP by HTRF, 30 min at 37° C., 1 mM IBMX) of 9.5 nM.

In the case of `CCCC[C@H](NC(=O)CNC(=O)[C@H](CCC(=O)O)NC(=O)C(C)(C)NC(=O)C(C)(C)NC(=O)[C@@H](NC(=O)[C@H](CCCCNC(C)=O)NC(=O)[C@H](C)NC(=O)[C@H](CCCNC(=N)N)NC(=O)[C@@H](NC(=O)[C@H](CCCCN)NC(=O)[C@H](CCC(=O)O)NC(=O)[C@H](CCCNC(=N)N)NC(=O)CNC(=O)[C@H](CCC(=O)O)NC(=O)[C@H](CC(C)C)NC(C)=O)C(C)C)[C@@H](C)CC)C(=O)N[C@@H](CO)C(=O)N[C@H](C(=O)N[C@@H](Cc1c[nH]c2ccccc12)C(=O)N[C@@H](CO)C(=O)NC(C)(C)C(=O)N[C@@H](CCCNC(=N)N)C(=O)N[C@@H](CCCCNC(C)=O)C(=O)N[C@@H](CCCCNC(C)=O)C(N)=O)[C@@H](C)O` [compound 28] (Ac-LEGREKVRAK(Ac)I[Aib][Aib]EG[Nle]STWS[Aib]RK(Ac)K(Ac)-NH2), the Emax came to 92%.

For the compound `CCCC[C@H](NC(=O)CNC(=O)[C@H](CCC(=O)O)NC(=O)C(C)(C)NC(=O)C(C)(C)NC(=O)[C@@H](NC(=O)[C@H](CCCCNC(C)=O)NC(=O)[C@H](C)NC(=O)[C@H](CCCNC(=N)N)NC(=O)[C@@H](NC(=O)[C@H](CCCCN)NC(=O)[C@H](CCC(=O)O)NC(=O)[C@H](CCCNC(=N)N)NC(=O)CNC(=O)[C@H](CCC(=O)O)NC(=O)[C@H](CC(C)C)NC(C)=O)C(C)C)[C@@H](C)CC)C(=O)N[C@@H](CO)C(=O)N[C@H](C(=O)N[C@@H](Cc1cccc2ccccc12)C(=O)N[C@@H](CO)C(=O)NC(C)(C)C(=O)N[C@@H](CCCNC(=N)N)C(=O)N[C@@H](CCCCN)C(=O)N[C@@H](CCCCNC(C)=O)C(N)=O)[C@@H](C)O` [compound 29] (Ac-LEGREKVRAK(Ac)I[Aib][Aib]EG[Nle]ST[1Nal]S[Aib]RKK(Ac)-NH2), the Emax amounted to 98%.

For the compound `CCCC[C@H](NC(=O)CNC(=O)[C@H](CCC(=O)O)NC(=O)C(C)(C)NC(=O)C(C)(C)NC(=O)[C@@H](NC(=O)[C@H](CCCCNC(C)=O)NC(=O)[C@H](C)NC(=O)[C@H](CCCNC(=N)N)NC(=O)[C@@H](NC(=O)[C@H](CCCCN)NC(=O)[C@H](CCC(=O)O)NC(=O)[C@H](CCCNC(=N)N)NC(=O)CNC(=O)[C@H](CCC(=O)O)NC(=O)[C@H](CC(C)C)NC(C)=O)C(C)C)[C@@H](C)CC)C(=O)N[C@@H](CO)C(=O)N[C@H](C(=O)N[C@@H](Cc1c[nH]c2ccccc12)C(=O)N[C@@](C)(CO)C(=O)NC(C)(C)C(=O)N[C@@H](CCCNC(=N)N)C(=O)N[C@@H](CCCCN)C(=O)N[C@@H](CCCCNC(C)=O)C(N)=O)[C@@H](C)O` [compound 30] (Ac-LEGREKVRAK(Ac)I[Aib][Aib]EG[Nle]STW[αMeS][Aib]RKK(Ac)-NH2), the maximum response (Emax) came to 93%.

For `CCCC[C@H](NC(=O)CNC(=O)[C@H](CCC(=O)O)NC(=O)C(C)(C)NC(=O)C(C)(C)NC(=O)[C@@H](NC(=O)[C@H](CCCCNC(C)=O)NC(=O)[C@H](C)NC(=O)[C@H](CCCNC(=N)N)NC(=O)[C@@H](NC(=O)[C@H](CCCCN)NC(=O)[C@H](CCC(=O)O)NC(=O)[C@H](CCCNC(=N)N)NC(=O)CNC(=O)[C@H](CCC(=O)O)NC(=O)[C@H](CC(C)C)NC(C)=O)C(C)C)[C@@H](C)CC)C(=O)N[C@@H](CO)C(=O)N[C@H](C(=O)N[C@@H](Cc1c[nH]c2ccccc12)C(=O)N[C@@H](CO)C(=O)NC(C)(C)C(=O)N[C@@H](CCCNC(=N)N)C(=O)N[C@@H](CCCCN)C(=O)N[C@@H](CCC(N)=O)C(N)=O)[C@@H](C)O` [compound 31] (Ac-LEGREKVRAK(Ac)I[Aib][Aib]EG[Nle]STWS[Aib]RKQ-NH2), the Emax worked out at 96%.

For `CCCC[C@H](NC(=O)CNC(=O)[C@H](CCC(=O)O)NC(=O)C(C)(C)NC(=O)C(C)(C)NC(=O)[C@@H](NC(=O)[C@H](CCCCNC(C)=O)NC(=O)[C@H](C)NC(=O)[C@H](CCCNC(=N)N)NC(=O)[C@@H](NC(=O)[C@H](CCCCN)NC(=O)[C@H](CCC(=O)O)NC(=O)[C@H](CCCNC(=N)N)NC(=O)CNC(=O)[C@H](CCC(=O)O)NC(=O)[C@H](CC(C)C)NC(C)=O)C(C)C)[C@@H](C)CC)C(=O)N[C@@H](CO)C(=O)N[C@H](C(=O)N[C@@H](Cc1c[nH]c2ccccc12)C(=O)N[C@@H](CO)C(=O)NC(C)(C)C(=O)N[C@@H](CCCNC(=N)N)C(=O)N[C@@H](CCCCN)C(=O)N[C@@H](CC(C)C)C(N)=O)[C@@H](C)O` [compound 32] (Ac-LEGREKVRAK(Ac)I[Aib][Aib]EG[Nle]STWS[Aib]RKL-NH2), the Emax came to 95%.

As to `CCCC[C@H](NC(=O)CNC(=O)[C@H](CCC(=O)O)NC(=O)C(C)(C)NC(=O)C(C)(C)NC(=O)[C@@H](NC(=O)[C@H](CCC(N)=O)NC(=O)[C@H](CCCCNC(C)=O)NC(=O)[C@H](CCCNC(=N)N)NC(=O)[C@@H](NC(=O)[C@H](CCCCN)NC(=O)[C@H](CCC(=O)O)NC(=O)[C@H](CCCNC(=N)N)NC(=O)CNC(=O)[C@H](CCC(=O)O)NC(=O)[C@H](CC(C)C)NC(C)=O)C(C)C)[C@@H](C)CC)C(=O)N[C@@H](CO)C(=O)N[C@H](C(=O)N[C@@H](Cc1c[nH]c2ccccc12)C(=O)N[C@@H](CO)C(=O)NC(C)(C)C(=O)N[C@@H](CCCNC(=N)N)C(=O)N[C@@H](CCCCN)C(=O)N[C@@H](CCCCN)C(N)=O)[C@@H](C)O` [compound 33] (Ac-LEGREKVRK(Ac)QI[Aib][Aib]EG[Nle]STWS[Aib]RKK-NH2), the Emax stood at 105%.

As for `CCCC[C@H](NC(=O)CNC(=O)[C@H](CCC(=O)O)NC(=O)C(C)(C)NC(=O)C(C)(C)NC(=O)[C@@H](NC(=O)C(C)(C)NC(=O)[C@H](CCCCNC(C)=O)NC(=O)[C@H](CCCNC(=N)N)NC(=O)[C@@H](NC(=O)[C@H](CCCCN)NC(=O)[C@H](CCC(=O)O)NC(=O)[C@H](CCCNC(=N)N)NC(=O)CNC(=O)[C@H](CCC(=O)O)NC(=O)[C@H](CC(C)C)NC(C)=O)C(C)C)[C@@H](C)CC)C(=O)N[C@@H](CO)C(=O)N[C@H](C(=O)N[C@@H](Cc1c[nH]c2ccccc12)C(=O)N[C@@H](CO)C(=O)NC(C)(C)C(=O)N[C@@H](CCCNC(=N)N)C(=O)N[C@@H](CCCCN)C(=O)N[C@@H](CCCCN)C(N)=O)[C@@H](C)O` [compound 34] (Ac-LEGREKVRK(Ac)[Aib]I[Aib][Aib]EG[Nle]STWS[Aib]RKK-NH2), the Emax amounted to 96%.

Regarding `CC[C@H](C)[C@H](NC(=O)[C@H](CCC(N)=O)NC(=O)[C@H](C)NC(=O)[C@H](CCCNC(=N)N)NC(=O)[C@@H](NC(=O)[C@H](CCCCN)NC(=O)[C@H](CCC(=O)O)NC(=O)[C@H](CCCNC(=N)N)NC(=O)CNC(=O)[C@H](CCC(=O)O)NC(=O)[C@H](CC(C)C)NC(C)=O)C(C)C)C(=O)NC(C)(C)C(=O)NC(C)(C)C(=O)N[C@@H](CCC(=O)O)C(=O)NCC(=O)N[C@@H](CCC(N)=O)C(=O)N[C@@H](CO)C(=O)N[C@H](C(=O)N[C@@H](Cc1c[nH]c2ccccc12)C(=O)N[C@@H](CO)C(=O)NC(C)(C)C(=O)N[C@@H](CCCNC(=N)N)C(=O)N[C@@H](CCCCN)C(=O)N[C@@H](CCCCN)C(N)=O)[C@@H](C)O` [compound 35] (Ac-LEGREKVRAQI[Aib][Aib]EGQSTWS[Aib]RKK-NH2), the maximal effect (Emax) is 98%.

`CCCC[C@H](NC(=O)CNC(=O)[C@H](CCC(=O)O)NC(=O)C(C)(C)NC(=O)C(C)(C)NC(=O)[C@@H](NC(=O)[C@H](CCC(N)=O)NC(=O)[C@H](C)NC(=O)[C@H](CCCNC(=N)N)NC(=O)[C@@H](NC(=O)[C@H](CCCCN)NC(=O)[C@H](CCC(=O)O)NC(=O)[C@H](CCCNC(=N)N)NC(=O)CNC(=O)[C@H](CCC(=O)O)NC(=O)[C@H](CC(C)C)NC(C)=O)C(C)C)[C@@H](C)CC)C(=O)N[C@@H](CO)C(=O)N[C@@H](CCCCN)C(=O)N[C@@H](Cc1cccc2ccccc12)C(=O)N[C@@H](CO)C(=O)N[C@@H](CCCCN)C(=O)N[C@@H](CCCNC(=N)N)C(N)=O` [compound 36] (Ac-LEGREKVRAQI[Aib][Aib]EG[Nle]SK[1Nal]SKR-NH2): the Emax turned out to be 103%.

The record behind these values is US10988524B2, “Modified relaxin B chain peptides and their therapeutic use” (priority 2018, dated 2021).
